Legend:
[1] = Microsomal stability assay, mouse liver microsomes; assay type: in vitro ADME; settings: pH 7.4; mouse liver microsomes; read-out: Liver microsome T½ (min) Mouse
In short: (§1)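 Compound at 1 μM was incubated at 37° C with 0.5 mg/mL liver microsomes and 1 mM NADPH and/or 1 mM UDPGA (with alamethicin) in 100 mM potassium phosphate pH 7.4, 3 mM MgCl2. Samples were taken at 0, 15, 30 and 60 min and measured by LC/MS/MS. t½ came from compound loss relative to 0 min, and Clint was scaled with 45 mg microsomal protein/g liver.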

[2] = Microsomal stability assay, human liver microsomes; assay type: in vitro ADME; settings: pH 7.4, read-out: Liver microsome T½ (min) Human
In short: as §1

[3] = Hepatocyte stability assay, human hepatocytes; assay type: in vitro ADME; settings: cryopreserved hepatocytes, read-out: Hepatocytes T½ (min) Human
Description: The […] of in vitro intrinsic clearance (Clint) for drug candidates in the early discovery stage is common practice in the pharmaceutical industry. The Clint values of drug candidates can help to confirm whether metabolism is the main clearance pathway when it is compared with the total body clearance in vivo. Hepatocytes are among the routinely used in vitro systems for measuring clearance. Hepatocytes have been reported to retain most of the phase I and phase II metabolic activities, and therefore, it is a useful tool to estimate the intrinsic clearance for potential drug candidates.
Metabolic stability of testing compound were be evaluated using human and mouse hepatocytes and can also be use rat, mouse, or other animal hepatocytes to predict intrinsic clearance. Cryopreserved hepatocytes were removed from the liquid nitrogen tank and thawed in a 37° C. water bath. As soon as the cells pulled away from the vial wall, they were decanted into 48 ml of warm HT medium. Cells were centrifuged for four minutes at 420 rpm (50 g). After removing the supernatant, pellet was re-suspended in warm DMEM medium. Cell density was counted by a hemacytometer.
The assay was carried out in 96-well microtiter plates. Compounds were incubated for 0, 60, 120, and 180 minutes at 37° C. with hepatocytes. Reaction mixtures (50 μL) contained a final concentration of 1 μM test compound, 0.5 million cells/mL hepatocytes in the DMEM medium. At each of the time points (for example, 0, 1, 2, and 3 hours), 200 μL of quench solution (100% acetonitrile with 0.1% formic acid) with internal standard was transferred to each well. Midazolam was included as a positive control to verify assay performance. Plates were sealed and centrifuged at 4° C. for 15 minutes at 4000 rpm. The supernatant is transferred to fresh plates for LC/MS/MS analysis.
Summarized conditions (customizable): [Compound]=[…], Positive control: midazolam and/or naloxone, [Hepatocyte]=0.5 million cells/Ml, time=0, 60, 120, and 180 min, t=37° C.
(§2) All samples were analyzed on LC/MS/MS using an AB Sciex API 4000 instrument, coupled to a Shimadzu LC-20AD LC Pump system. Analytical samples were separated using a Waters Atlantis T3 dC18 reverse phase HPLC column (20 mm×2.1 mm) at a flow rate of 0.5 mL/min. The mobile phase consisted of 0.1% formic acid in water (solvent A) and 0.1% formic acid in 100% acetonitrile (solvent B).
The extent of metabolism was calculated as the disappearance of the test compound, compared to the 0-min control reaction incubations. Initial rates were calculated for the compound concentration and used to determine t½ values and subsequently, the intrinsic clearance, Clint. Clint=(0.693)(1/t½(min))(mL incubation/million cells)

[4] = Microsomal stability assay, monkey liver microsomes; assay type: in vitro ADME; settings: pH 7.4, read-out: Liver microsome T½ (min) Monkey
Protocol: (§3) Microsomal stability assay is a widely used in vitro model to characterize the metabolic conversion by phase I enzymes, such as cytochrome P450 (CYP) enzymes. Since metabolism is known to be highly variable in different species, microsomal stability assay is commonly run in multiple species. Metabolic stability of testing compound can be evaluated using human, rat, mouse, or other animal liver or intestine microsomes to predict intrinsic clearance.
(§4) The assay was carried out in 96-well microtiter plates at 37° C. Reaction mixtures (25 μL) contained a final concentration of 1 μM test compound, 0.5 mg/mL liver microsomes protein, and 1 mM NADPH and/or 1 mM UDPGA (with alamethicin) in 100 mM potassium phosphate, pH 7.4 buffer with 3 mM MgCl2. The incubation was done with N=1, but duplicate incubation at each time point can be prepared if necessary. At each of the time points (for example, 0, 15, 30, and 60 minutes), 150 μL of quench solution (100% acetonitrile with 0.1% formic acid) with internal standard was transferred to each well. Besides the zero minute controls, mixtures containing the same components except the NADPH can also be prepared as the negative control. Verapamil was included as a positive control to verify assay performance. Plates were sealed, vortexed, and centrifuged at 4° C. for 15 minutes at 4000 rpm. The supernatant is transferred to fresh plates for LC/MS/MS analysis.
(§5) Summarized conditions: [Compound]=[…], [LM]=0.5 mg/mL, [NADPH]=1 mM and/or [UDPGA]=1 mM, Buffer=100 mM Potassium Phosphate, pH 7.4 with 3 mM MgCl2, Time=0, 15, 30, and 60 min, and Temperature=37° C.
as §2
(§6) The extent of metabolism is calculated as the disappearance of the test compound, compared to the 0-min time incubation. Initial rates are calculated for the compound concentration and used to determine half-life (t½) values and subsequently, the intrinsic clearance (Clint). Clint=(0.693)(1/t½ (min))(g of liver/kg of body weight)(mL incubation/mg of microsomal protein)(45 mg of microsomal protein/g of liver weight)

[5] = In vivo pharmacokinetics in plasma after oral gavage (PO) in male CD-1 mice; settings: 5 mg/kg PO, Table 4
Protocol: The purpose of this study is to determine the pharmacokinetics of the tested compounds in plasma, following oral gavage administration (PO) to male CD-1 mice.
Animal Husbandry: Animals were group housed during acclimation and the study. The animal room environment were controlled (target conditions: temperature 18 to 26° C., relative humidity 30 to 70%, 12 hours artificial light and 12 hours dark). Temperature and relative humidity were monitored daily. Animals were fasted at least 12 hours prior to the administration. All animals had access to Certified Rodent Diet ad libitum 4 hours post dosing.
Dose Formulation: prepared 85-100 uL of a stock solution of representative compounds of the disclosure in DMSO at 50 mM; 1.5% v/v of Tween 80 were added and mixed gently; 95.5% v/v saline was added gently to the organic phase. The solution was mixed slowly by reverse pipetting to get a clear solution.
Dose Administration: the dose formulations were administered via oral gavage per facility SOPs. The dose volume were determined by the animals' body weight collected on the morning of dosing day
Sample Collection: blood collection (about 0.05 mL per time point) was performed from saphenous vein of each animal into polypropylene tubes at each timepoints (0, 0.25, 0.5, 1, 2, 4, 8, 12, and 24 hr). All blood samples were transferred into pre-chilled tubes containing 2 μL of K2-EDTA (0.5M) and placed on wet ice until centrifugation. Each collected blood sample was in the wet-ice before centrifugation. Each collected blood was under centrifugation for 15 minutes at 4° C. and 3000 g for plasma collection. Plasma samples were stored in polypropylene tubes, quickly frozen over dry ice and kept at −70±10° C. until LC/MS/MS analysis.
Bioanalytical analysis: A LC-MS/MS method for the quantitative determination of tested compound in biological matrix were developed under non-GLP compliance. A calibration curve with at least 7 non-zero calibration standards were applied for the method including LLOQ.
Plasma concentration versus time data were analyzed by non-compartmental approaches using the Phoenix WinNonlin 6.3 software program. Cl, Vdss, C0, Cmax, Tmax, T^1/2, AUC(0-t), AUC(0-inf), MRT(0-t), MRT(0-inf), % F (oral availability) and graphs of plasma concentration versus time profile were reported.

LNCaP tumors = test: LNCaP xenografts model in castrated male NCG mice; assay type: in vivo; settings: Table 4; extrapolated Cmin in efficacy
Protocol: Tumor growth was measured in male NCG mice bearing LNCaP tumors. Castration was performed when tumors reached ˜100 mm^3 and dosing (60 mg/kg PO qd) started 1 week after castration. […] Individual tumor volume change from baseline measured at the end of the experiment.

[6] = Microsomal stability assay, dog liver microsomes; assay type: in vitro ADME; settings: pH 7.4, read-out: Liver microsome T½ (min) Dog
Protocol: as §3, §4, §5, §2, §6

[7] = Microsomal stability assay, rat liver microsomes; assay type: in vitro ADME; settings: pH 7.4, read-out: Liver microsome T½ (min) Rat
Protocol: as §3, §4, §5, §2, §6

A half-life at 1 μM [1] greater than 120 min, a half-life at 1 μM [2] greater than 120 min and a half-life at 1 μM [3] greater than 360 min were found for `CNC(=O)c1ccc(N2C(=S)N(c3ccc(C#N)c(C(F)(F)F)c3)C(=O)C2(C)C)cc1F` [Enzalutamide, enzalutamide, reference compound] in this work. The half-life at 1 μM [4] was greater than 120 min, the “Cmin at 5 mg/kg PO” value [5] was 3.80 µM and the “Cmin at 5 mg/kg PO” value (LNCaP tumors) was 22.8 µM. For the same compound, the half-life at 1 μM [6] was greater than 120 min and the half-life at 1 μM [7] was greater than 120 min.
